Experiments:
[1] = test system: rat cortical synaptosomes; test: glutamate-induced 45Ca2+ uptake into rat cortical synaptosomes (P2-fraction); format: cell-based; settings: for activity at 100 µM / IC50: Rattus norvegicus, glutamate-stimulated; for activity at 100 µM / ^45Ca^2+ uptake (% vs. control): 5 min; for activity at 100 µM: compound at 100 µM, synaptosomes of newborn Wistar rats, 5 minutes at 37°C, control = 100%, read-out: ^45Ca^2+ uptake (% vs. control); for ^45Ca^2+ uptake (% vs. control): 100 µM; for IC50: concentration at which 50% inhibition of calcium uptake takes place, four different concentrations
From the text: Neuroprotective action of the synthesized compounds was studied in P2-fraction of the rat brain cortex synaptosomes as an in vitro convenient model for evaluation of the ability of various compounds to influence calcium uptake into the nerve endings. In the present invention, the applicant used the method of detecting the uptake of ^45Ca^2+ into rat cortical synaptosomes when stimulated with glutamic acid.
Synaptosomes were obtained from the cerebral cortex of newborn Wistar rats (9-10 days) according to Hayosh's standard procedure [Hajos F.// Brain Res., 1975, Vol.93, No 3, pp. 485-489]. The brain was homogenized (glass-teflon) in 10 volumes of 0.32 M chilled sucrose (900 rpm). The homogenate was centrifuged for 10 minutes at 1500 g. The resulting supernatant was centrifuged for 20 minutes at 10000 g. To accumulate the radioactive label, the P2-synaptosomal fraction was suspended in incubation buffer A (132 mM NaCl, 5 mM KCl, 5 mM HEPES, 10 mM glucose, pH 7.4 (protein concentration of 1.5-2 mg/ml)). The final concentration of Ca^2+ was 1.25 mM (1.4 µCi/ml). […] glutamate was used to stimulate the uptake of ^45Ca^2+ in synaptosomes. After 5 minutes of the incubation with glutamate at 37°C, the uptake of ^45Ca^2+ was stopped by filtration through GF/B filters (Whatman, England), washing three times with cold buffer B (145 mM KCl, 10 mM Tris, 5.4 mM Trilon B, pH 7.4) [L.N. Petrova, S.O. Bachurin // Bull. Exp. Biol. Med., 2006., Vol. 142, No 7, pp.51-54]. The samples were analyzed by liquid scintillation beta analyzer (Russia). All tests were performed in three parallel replications in 2-3 independent experiments. The amount of ^45Ca^2+ uptaced into synaptosomes was determined by the difference in the content of the label in the glutamate-induced uptake into synaptosomes and uptake into synaptosomes without agonist, and expressed as percentages of the control (control = 100%).
Specific uptake of ^45Ca^2+ was calculated according to the following formula: K(43/21) = [(Ca4-Ca3)/(Ca2-Ca1)]⋅100%, [formula] wherein Ca1 is uptake of ^45Ca^2+ in the control (without glutamate and a test compound), Ca2 is uptake of ^45Ca^2+ in the presence of glutamate, Ca3 is uptake of ^45Ca^2+ in the presence of a test compound (without glutamate), Ca4 is uptake of ^45Ca^2+ in the presence of glutamate and a test compound. Statistical analysis was performed according to Student's test.
Testing of the compounds was performed at a concentration of 100 µM. Compounds 1-9 which have an inhibitory effect on the ^45Ca^2+ uptake into rat cortical synaptosomes were examined in detail at four different concentrations to determine the IC50 value (concentration of a compound at which 50% inhibition of calcium uptake takes place).

[2] = acute toxicity (LD50) according to the standard method; settings: in vivo

| SMILES | activity at 100 µM [1] | LD50 [2] | ^45Ca^2+ uptake (% vs. control) [1] | IC50 [1] |
| --- | --- | --- | --- | --- |
| CN(C)c1ccc(P(=O)(c2ccc(N(C)C)cc2)C(CC(=O)O)C(=O)O)cc1 (centres unmarked) [Compound 11, 2-[bis-(4-Dimethylaminophenyl)-phosphinoyl]succinic acid, reference compound] | 117 ± 3.9% |  |  |  |
| CCN(CC)C(=O)CC(CP(=O)(c1ccccc1)c1ccccc1)C(=O)N(CC)CC (centres unmarked) [Compound 10, N^1,N^1,N^4,N^4-tetraethyldiamide of 2-(diphenylphosphinoylmetyl)succinic acid] | 63.8 ± 12% | > 100 mg/kg |  |  |
| CCP(=O)(CC)C(CC(=O)O)C(=O)O (centres unmarked) [Compound 13, 2-(Diethylphosphinoyl)succinic acid, reference compound] | 120 ± 17.3% |  |  |  |
| CCCCN(CCCC)C(=O)CC(C(=O)N(CCCC)CCCC)P(=O)(c1ccccc1C)c1ccccc1C (centres unmarked) [Compound 2] |  | > 100 mg/kg | 6.6±3.3% | 9.3 µM |
| Cc1ccc(C)c(P(=O)(c2cc(C)ccc2C)C(CC(=O)O)C(=O)O)c1 (centres unmarked) [Compound 12, 2-[bis-(2,5-Dimethylphenyl)-phosphinoyl]succinic acid, reference compound] | 97.9 ± 11.4% |  |  |  |
| CCN(CC)C(=O)CP(=O)(c1ccccc1)c1ccccc1 [Compound 17, N,N-Diethylamide of 2-(diphenylphosphinoyl)acetic acid, reference compound] | 95.4% |  |  |  |
| CCCCN(CCCC)C(=O)CC(C(=O)N(CCCC)CCCC)P(=O)(c1ccc(OC)cc1)c1ccc(OC)cc1 (centres unmarked) [Compound 6, N^1,N^1,N^4,N^4-tetrabutyldiamide of 2-[bis(4-methoxyphenyl)-phosphinoyl]succinic acid] | 7.2 ± 1.3% | > 100 mg/kg |  | 17 µM |
| CCCCN(CCCC)C(=O)CC(C(=O)N(CCCC)CCCC)P(=O)(CCCC)CCCC (centres unmarked) [Compound 7, N^1,N^1,N^4,N^4-tetrabutyldiamide of 2-(di-n-butylphosphinoyl)succinic acid] | 0% | > 100 mg/kg |  | 44.7 µM |
| CCCCN(CCCC)C(=O)CC(C(=O)N(CCCC)CCCC)P(=O)(c1ccccc1)c1ccccc1 (centres unmarked) [Compound 1, N^1,N^1,N^4,N^4-tetrabutyldiamide of 2-(diphenylphosphinoyl)succinic acid] |  | > 100 mg/kg | 0% | 14.1 µM |
| CCCCN(CCCC)C(=O)CC(C(=O)N(CCCC)CCCC)P(=O)(c1ccc(Cl)cc1)c1ccc(Cl)cc1 (centres unmarked) [Compound 5, N^1,N^1,N^4,N^4-tetrabutyldiamide of 2-[bis(4-chlorophenyl)-phosphinoyl]succinic acid] | 11.7 ± 7% | > 100 mg/kg |  | 4.8 µM |
| CCCCN(CCCC)C(=O)CC(C(=O)N(CCCC)CCCC)P(=O)(c1cc(C)ccc1C)c1cc(C)ccc1C (centres unmarked) [Compound 3, N^1,N^1,N^4,N^4-tetrabutyldiamide of 2-[bis(2,5-dimethylphenyl)-phosphinoyl]succinic acid] | 7.7 ± 6.4% | > 100 mg/kg |  | 18.6 µM |
| CCCCN(CCCC)C(=O)CC(C(=O)N(CCCC)CCCC)P(=O)(c1ccc(N(C)C)cc1)c1ccc(N(C)C)cc1 (centres unmarked) [Compound 4, N^1,N^1,N^4,N^4-tetrabutyldiamide of 2-[bis(4-dimethylaminophenyl)-phosphinoyl]succinic acid] | 0% | > 100 mg/kg |  | 7.9 µM |
| CCN(CC)CC(C(=O)N(CC)CC)P(=O)(c1ccccc1)c1ccccc1 (centres unmarked) [Compound 18, N,N-Diethylamide of 2-(diphenylphosphinoyl)-3-(diethylamino)propionic acid, reference compound] | 97.4% |  |  |  |
| CCCCN(CCCC)C(=O)CC(CP(=O)(c1cc(C)ccc1C)c1cc(C)ccc1C)C(=O)N(CCCC)CCCC (centres unmarked) [Compound 9, N^1,N^1,N^4,N^4-tetrabutyldiamide of 2-[bis(2,5-dimethylphenyl)-phosphinoylmethyl]succinic acid] | 4.9 ± 4.9% | > 100 mg/kg |  | 5.1 µM |
| CCCCN(CCCC)C(=O)CC(CP(=O)(c1ccc(OC)cc1)c1ccc(OC)cc1)C(=O)N(CCCC)CCCC (centres unmarked) [Compound 8, N^1,N^1,N^4,N^4-tetrabutyldiamide of 2-[bis(4-methoxyphenyl)-phosphinoylmethyl]succinic acid] |  | > 100 mg/kg | 0% | 15.5 µM |
| CCCCN(CCCC)C(=O)CP(=O)(c1ccccc1)c1ccccc1 [Compound 16, N,N-Dibutylamide of 2-(diphenylphosphinoyl)acetic acid, reference compound] | 96.2 ± 2.9% |  |  |  |
